In one data set the target is T1, 5-HT2C receptor (Homo sapiens, UniProt P28335).
T1 sequence (P28335 33-458): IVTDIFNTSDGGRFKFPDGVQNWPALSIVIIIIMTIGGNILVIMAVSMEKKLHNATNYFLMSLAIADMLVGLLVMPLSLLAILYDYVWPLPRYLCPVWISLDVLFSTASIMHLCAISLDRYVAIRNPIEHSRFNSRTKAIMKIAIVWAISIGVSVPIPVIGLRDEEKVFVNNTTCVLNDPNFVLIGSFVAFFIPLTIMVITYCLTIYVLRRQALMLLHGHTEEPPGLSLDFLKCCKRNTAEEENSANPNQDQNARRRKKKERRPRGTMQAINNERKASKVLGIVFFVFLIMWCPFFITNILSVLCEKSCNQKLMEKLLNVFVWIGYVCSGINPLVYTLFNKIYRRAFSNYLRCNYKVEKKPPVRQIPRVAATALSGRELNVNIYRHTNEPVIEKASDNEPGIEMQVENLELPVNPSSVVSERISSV
In words: FLIPR Ca2+ flux functional agonist assay at 5-HT2C. Type of data set: cell-based. Set-up: expressed in transfected cells. The settings on record: for Emax: agonist activity, FLIPR Ca2+ flux, stably transfected cells, at max dose, read-out: 5-HT2C % Act @ Max Dose. The method, then: (§1) Disclosed compounds were tested for agonist activity at several serotonin receptor subtypes (5-HT2A, […], and 5-HT2C) using Ca^2+ flux functional assays, with the results summarized in Table 9.
(§2) Test Compounds. Compounds were prepared as described above.
Functional Assays at 5-HT2C. Agonist activity at 5-HT2C was determined using a FLIPR Ca^2+ flux assay at Eurofins DiscoverX (Fremont, CA) according to their standard protocols. Briefly, stably transfected cells expressing the human 5-HT2C receptor were grown and plated in a 384-well plate and incubated at 37° C. and 5% CO2 overnight. Assays were performed in 1× Dye Loading Buffer consisting of 1× Dye, 1× Additive A, and 2.5 mM Probenecid in HBSS/20 mM Hepes. Probenecid was prepared fresh. Cells were loaded with dye prior to testing and incubated at 37° C. for 30-60 minutes. After dye loading, cells were removed from the incubator and 10 μL HBSS/20 mM Hepes was added. 3× vehicle was included in the assay buffer. Cells were incubated for 30 mins at room temperature in the dark to equilibrate plate temperature. Intermediate dilution of sample stocks was performed to generate 4× sample in assay buffer. Compound agonist activity was measured on a FLIPR Tetra (MDS). Calcium mobilization was monitored for 2 minutes and 10 μL 4× sample in HBSS/20 mM Hepes was added to the cells 5 seconds into the assay.

The nature of data set [1]: Metabolic stability in human liver microsomes (HLM). The data set is classed as in vitro ADME. The conditions noted are these: for stability in HLM (in words): 1 μM, 0.50 mg protein/mL, 1 mM NADPH, 37 °C, 60 min; for half-life at 1 µM / microsomal CLint at 1 µM: human liver microsomes 0.50 mg/mL, NADPH 1 mM, test compound 1 μM, 37° C., pH 7.4, 60 min. The method, then: as §2
HLM Stability. Pooled HLM from adult male and female donors (Corning 452117) were used. Microsomal incubations were carried out in multi-well plates. Liver microsomal incubation medium consisted of PBS (100 mM, pH 7.4), MgCl2 (1 mM), and NADPH (1 mM), with 0.50 mg of liver microsomal protein per mL. Control incubations were performed by replacing the NADPH-cofactor system with PBS. Test compounds (1 μM, final solvent concentration 1.0%) were incubated with microsomes at 37° C. with constant shaking. Six time points over 60 minutes were analyzed, with 60 μL aliquots of the reaction mixture being drawn at each time point. The reaction aliquots were stopped by adding 180 μL of cold (4° C.) acetonitrile containing 200 ng/mL tolbutamide and 200 ng/mL labetalol as internal standards (IS), followed by shaking for 10 minutes, and then protein sedimentation by centrifugation at 4,000 rpm for 20 minutes at 4° C. Supernatant samples (80 μL) were diluted with water (240 μL) and analyzed for parent compound remaining using a fit-for-purpose liquid chromatography-tandem mass spectrometry (LC-MS/MS) method.
Data Analysis. The elimination constant (kel), half-life (t1/2), and intrinsic clearance (CLint) were determined in a plot of […] versus time, using linear regression analysis.
A general note: Liver microsomes are vesicles of endoplasmic reticulum, rich in cytochrome P450 enzymes.

Data set [2] addresses T2, 5-HT2B receptor (Homo sapiens, UniProt P41595).
T2 construct: expressed in transfected cells; host or cells: HEK293
The experiment in a line: Radioligand binding at 5-HT2B ([3H]LSD). Here is the method:
The binding affinities of disclosed compounds at the ketanserin binding site of the 5-HT2A receptor, the LSD binding site of the 5-HT2B receptor, and the mesulergine binding site of the 5-HT2C receptor were determined in radioligand binding experiments.
Method. The affinity of the test compounds for 5-HT2A, 5-HT2B, and 5-HT2C receptors was determined in radioligand binding experiments with [^3H]ketanserin, [^3H]LSD, and [^3H]mesulergine, respectively, by WuXi AppTec (Hong Kong) Limited, using methods adapted from the literature and under conditions described in Table 7.

For data set [3], the target named is T2, 5-HT2B receptor. In words: FLIPR Ca2+ flux functional agonist assay at 5-HT2B. Type of data set: cell-based. The conditions noted are these: for Emax: agonist activity, FLIPR Ca2+ flux, HEK293, at max dose, read-out: 5-HT2B % Act @ Max Dose. Here is the method: as §1, §2
Functional Assays at 5-HT2A and 5-HT2B. Agonist activity at 5-HT2A and 5-HT2B receptors was determined using a FLIPR Ca^2+ flux assay at WuXi AppTec (Hong Kong) Limited according to their standard protocols. Briefly, stably transfected cells expressing the receptor of interest (HEK293 for both 5-HT2A and 5-HT2B) were grown and plated in a 384-well plate and incubated at 37° C. and 5% CO2 overnight. A solution of 250 mM probenecid in 1 mL FLIPR assay buffer was prepared fresh. This was combined with a fluorescent dye (Fluo-4 Direct™) to make a final assay concentration of 2.5 mM. Compounds were diluted 1:3.16 for 10 points and 750 nL was added to a 384 well compound plate using ECHO along with 30 μL assay buffer. The fluorescent dye was then added to the assay plate along with assay buffer to a final volume of 40 μL. The cell plate was incubated for 50 min at 37° C. and 5% CO2 and placed into the FLIPR Tetra along with the compound plate. 10 μL of references and compounds were then transferred from the compound plate into the cell plate and the fluorescent signal was read.

The structures appear in SMILES notation. Some results are limits rather than exact numbers.

We go through three compounds from patent US20260347310A1, “PHENALKYLAMINES AND METHODS OF MAKING AND USING THE SAME” (GILGAMESH PHARMACEUTICALS, INC., priority 2022, published 2026).

The term EC50 denotes the concentration needed to bring the measured effect to its halfway point. Lower therefore signals higher potency in that assay. Broadly, the half-life is the time in which the quantity being followed falls by half. Broadly, the microsomal CLint is a measure of how fast metabolising enzymes remove a compound, apart from limits set by blood flow. Higher therefore signals faster metabolism. One may read the Ki as a measure of affinity in units of concentration, obtained from inhibition or displacement. A high value points to weaker binding.

T2 sequence (P41595 whole entry): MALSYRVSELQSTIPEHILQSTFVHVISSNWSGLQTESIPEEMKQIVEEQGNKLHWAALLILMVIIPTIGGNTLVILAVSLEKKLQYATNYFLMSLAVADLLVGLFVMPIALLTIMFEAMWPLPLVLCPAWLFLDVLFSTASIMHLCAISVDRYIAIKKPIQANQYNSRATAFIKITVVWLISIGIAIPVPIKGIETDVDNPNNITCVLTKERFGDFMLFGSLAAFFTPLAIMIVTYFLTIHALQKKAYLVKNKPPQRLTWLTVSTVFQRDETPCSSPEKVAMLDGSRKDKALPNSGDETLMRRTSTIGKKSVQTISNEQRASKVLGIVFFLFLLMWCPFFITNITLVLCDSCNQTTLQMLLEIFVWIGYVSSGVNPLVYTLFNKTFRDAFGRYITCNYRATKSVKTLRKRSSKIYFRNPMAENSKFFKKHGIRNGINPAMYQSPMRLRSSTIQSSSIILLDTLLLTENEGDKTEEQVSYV

Turning to `CCCCCCc1cc(OC)c(C[C@H](N)CC)cc1OC` [Compound 1R, (R)-1-(4-hexyl-2,5-dimethoxyphenyl)butan-2-amine], at 5-HT2C receptor, it took 1.19 µM to reach a half-maximal effect (EC50) and the Emax was 104%. For the same compound, the “fold more potent at 5-HT2C” value at 5-HT2C receptor (1R compared to 1S, Ca2+ flux) is on record as ~ 3 fold. Also, in data set [1], the “stability in HLM (in words)” value is “substantially more stable than 1S”, the half-life at 1 µM came out at 37.5 min and the microsomal CLint at 1 µM was found to be 37 µL/min/mg. Besides, in data set [1] (1R versus 1S), the “CLint and half-life in HLM (in words)” value is “lower CLint and longer half-life”. Further, the inhibitory constant (Ki) on 5-HT2B receptor [2] worked out at 0.111 µM. Moreover, on 5-HT2B receptor [2] (1R compared to 1S), the “fold lower affinity at 5-HT2B” value was ~ 36 fold. Moreover, on 5-HT2B receptor [3], the half-maximal effective concentration (EC50) is more than 10 µM and the Emax turned out to be 14.8%.
Consider `CCCCCCc1cc(OC)c(C[C@@H](N)CC)cc1OC` [Compound 1S, (S)-1-(4-hexyl-2,5-dimethoxyphenyl)butan-2-amine], for which, at 5-HT2C receptor, the response was half-maximal at 3.13 µM (EC50) and the Emax amounted to 106%. In data set [1], this compound came in with a half-life at 1 µM of 19.7 min and an intrinsic clearance (microsomal CLint) at 1 µM of 70.2 µL/min/mg. In addition, at 5-HT2B receptor [2], the Ki stood at 0.0031 µM. For the same compound, at 5-HT2B receptor [3], the EC50 was more than 10 µM and the Emax is 16.1%.
For `CCC(N)Cc1cc(OC)c(CCCCCC(F)(F)F)cc1OC` (racemic) [Compound 2a, 1-(2,5-dimethoxy-4-(6,6,6-trifluorohexyl)phenyl)butan-2-amine], in data set [1], the “stability in HLM (in words)” value is “significantly higher stability compared to 1R and 1S”; the half-life at 1 µM is more than 145 min; the microsomal CLint at 1 µM was less than 9.6 µL/min/mg. Moreover, at 5-HT2B receptor [3], the EC50 is more than 10 µM and the Emax was found to be 4.85%.
